A short description of the assay: Ratio of kinetic parameters Vmax to the of Km.
Turning to `Nc1nc(F)nc2c1ncn2[C@@H]1O[C@H](CO)[C@@H](O)[C@@H]1O`, the Ratio came out at 0.0096.

For `Nc1ncnc2c1ncn2[C@@H]1O[C@H](CO)[C@@H](O)[C@H]1O`, the Ratio was found to be 15.

`Nc1nc(N)c2ncn([C@@H]3O[C@H](CO)[C@@H](O)[C@H]3O)c2n1`: the Ratio came to 3.6.

Source of the values: ChEMBL document CHEMBL1123068, “2-Fluoroformycin and 2-aminoformycin. Synthesis and biological activity” (J Med Chem, 1985).
